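The compound was tested at five concentrations on cells cultured in 96-well plates, with a 48-hour exposure period. Definition used: TGI = concentration required for complete inhibition of growth.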
Columns and labels:
Test in all cases: NCI-60 cell line screen, 48 h
NCI-H226 lung = test system: NCI-H226 lung
786-0 renal = test system: 786-0 renal
SW-620 colon = test system: SW-620 colon
SNB-75 CNS = test system: SNB-75 CNS
UACC-257 melanoma = test system: UACC-257 melanoma
RPMI-8226 leukemia = test system: RPMI-8226 leukemia
HCC-2998 colon = test system: HCC-2998 colon
UO-31 renal = test system: UO-31 renal
BT-549 breast = test system: BT-549 breast
NCI/ADR-RES ovarian = test system: NCI/ADR-RES ovarian

SMILES	TGI (NCI-H226 lung) [µM]	TGI (786-0 renal) [µM]	TGI (SW-620 colon) [µM]	TGI (SNB-75 CNS) [µM]	TGI (UACC-257 melanoma) [µM]	TGI (RPMI-8226 leukemia) [µM]	TGI (HCC-2998 colon) [µM]	TGI (UO-31 renal) [µM]	TGI (BT-549 breast) [µM]	TGI (NCI/ADR-RES ovarian) [µM]
O=C1/C(=C/c2ccccc2[N+](=O)[O-])N=C(c2ccccc2)N1C1Nc2cc3c(cc2S1)NC(N1C(=O)/C(=C/c2ccccc2[N+](=O)[O-])N=C1c1ccccc1)S3 (stereo not given)	> 100	79.6	> 100	> 100	> 100	49.7	38.1	> 100	> 100	97.4
O=[N+]([O-])c1ccc(N=Nc2c(O)c(S(=O)(=O)O)cc3cc(S(=O)(=O)O)ccc23)cc1	> 100	> 100	> 100	> 100	> 100	> 100	> 100	> 100	> 100	> 100
N#Cc1c(N2CCCC2)ncn(Cc2ccccc2)c1=O	> 100	> 100	> 100	> 100	> 100	> 100	> 100	> 100	> 100	> 100
CCOc1nc(-c2ccccc2)cc(-c2ccc(N3CCOCC3)cc2)c1C#N	> 100	> 100	> 100	> 100	> 100	> 100	> 100	> 100	> 100	> 100
CCCCc1ccc(Nc2ncc3[nH]cnc3n2)cc1	45.4	54.3	42.6	35.5	59	71.2	37.8	37.9	52.8	46
O=C(OCc1ccccc1)C1(N2CN(C3(C(=O)OCc4ccccc4)CCCC3)CN(C3(C(=O)OCc4ccccc4)CCCC3)C2)CCCC1	> 10	> 10	> 10	> 10	> 10	> 10	> 10	> 10	> 10	> 10
CCOC(=O)/C=C(/C(=O)OCC)n1cc(C)c(=O)n(Cc2cn(COCCOC(C)=O)nn2)c1=O	> 54	> 54.8	> 57.6	> 100	49.9	57.7	37.6	7.99	37.9	67.9
Cc1[nH]c2ccccc2c1C=Nc1ccc(N=Cc2c(C)[nH]c3ccccc23)cc1	> 100	35.7	70.2	> 100	> 100	45.3	> 100	> 100	> 100	> 100
C=CCNC(=O)NC1=CSC2=NC(=O)C3(NN12)c1ccccc1-c1ccccc13	> 10	> 10	> 10	> 10	> 10	> 10	> 10	> 10	> 10	> 10
Cc1ccc(C(C2C(=O)N(C)C(=O)N(C)C2=O)C(F)(F)C(=O)N(C)C)cc1 (stereo not given)	> 100	> 100	> 100	> 100	> 100	> 100	> 100	> 100	> 100	> 100
O=C1c2c(nc3ccccc3c2-c2ccccc2)CN1Nc1ccccn1	> 89	> 93.1	> 100	> 92.8	> 100	> 100	> 100	51.6	> 100	> 100
COC(=O)c1cc(C#N)[nH]c1-c1ccc(C)s1	> 100	> 100	> 100	> 100	> 100	> 100	> 100	> 100	> 100	> 100
COc1ccc(-c2c(N)n(-c3cccc(C(=O)O)c3)c(=O)c3cc([N+](=O)[O-])ccc23)cc1	> 100	> 100	> 100	> 100	> 100	> 100	> 100	> 100	> 100	> 100
[N-]=[N+]=NCc1cccc(Nc2cc(=O)[nH]c(=O)[nH]2)c1	> 100	> 100	> 100	> 100	> 100	> 100	> 100	> 100	> 100	> 100
O=S1(=O)c2ccccc2C(=NO)c2ccccc21	> 100	> 100	> 100	> 100	> 100	> 100	> 100	> 100	> 100	> 100
CN(C)Cc1cc(O)c(O)c(CN(C)C)c1	> 100	> 100	> 100	> 100	45.9	> 100	81.8	> 100	> 100	65.9

— PubChem BioAssay (NCI)
